Data on 1 compound can be found in patent publication US20190216786A1, “USE OF 2-{4-[(4-{[1-CYCLOPROPYL-3-TETRAHYDRO-2H-PYRAN-4-yl)-1H-PYRAZOL-4yl]OXY} PYRIDINE-2-yl)AMINO]PYRIDIN-2-yl}PROPAN-2-OL IN THE TREATMENT OF CANCER” (Eli Lilly and Company, priority 2016, published 2019).

In general, NOAEL refers to the highest dose or exposure tested at which no adverse effect was seen.

The structures appear in SMILES notation.

The nature of one data set: in vivo. More on the design: species or system dogs. Conditions: dog. From the text: (§1) Due to the cardiac effects observed with daily dosing in preclinical models, intermittent-dosing toxicology studies administering 2-{4-[(4-{[1-cyclopropyl-3-(tetrahydro-2H-pyran-4-yl)-1H-pyrazol-4-yl]oxy}pyridin-2-yl)amino]pyridin-2-yl}propan-2-ol 4-methylbenzenesulfonate for 3 months in dogs and rats were completed to support clinical dosing. The two dosing schedules evaluated were 2 weeks of daily dosing followed by 2 weeks of no dosing (2 weeks on/2 weeks off) or 3 weeks of daily dosing followed by 1 week of no-dosing (3 weeks on/1 week off). […] Margins of safety based on the NOAELs for the 3-month studies support the proposed clinical dose range of 10 to 100 mg in patients.

The nature of data set [1]: 3-month intermittent-dosing toxicology study in rats. The class given is in vivo.
Description: as §1

For `CC(C)(O)c1cc(Nc2cc(Oc3cn(C4CC4)nc3C3CCOCC3)ccn2)ccn1` [2-{4-[(4-{[1-cyclopropyl-3-(tetrahydro-2H-pyran-4-yl)-1H-pyrazol-4-yl]oxy}pyridin-2-yl)amino]pyridin-2-yl}propan-2-ol 4-methylbenzenesulfonate], in “in vivo”, the NOAEL at 3 months is 7.5 mg/kg and the adverse effects entry was “no adverse effects”. Besides, the cardiac effects entry in data set [1] (rat, 12 mg/kg, 3 cycles of the 3-week-on/1-week-off schedule) was “limited to aortic inflammation and degeneration in a single female animal”. In addition, in data set [1] (rats, 3 months, 2-week on/2-week-off dosing schedule), the “compound-related, adverse effects” value is recorded as “no compound-related, adverse effects detected”.
